The values below come from patent US4611066A, “Bryostatins 4 to 8” (Arizona State University, priority 1984, dated 1986).

For one test, the system named is P 388 (PS) mouse tumor. Description: P 388 (PS) mouse tumor test, life extension in vivo. The source says: The dried methylene chloride extracts (derived from the shipping solution and from extraction of the chopped animals) were further separated by taking small portions and subjecting each to solvent partitioning beginning with methanol:water (9:1)/hexane (4 times). […] The aqueous mthanol layers were further diluted with water to a ratio of 8:2 and were extracted repeatedly with carbon tetrachloride (9 times). The carbon tetrachloride extracts were dried and assayed for antitumor activity.
(§1) The isolation and purification methods chosen can be monitored at each step by performing in vitro and/or in vivo antitumor tests as described by R. I. Geran, N. H. Greenberg, M. M. MacDonald, A. M. Schumacher and B. S. Abbot in Cancer Chemother. Rep. Part 3, Vol. 3 (2): 1-103 (1972); and by Schmidt, J. M.; Pettit, G. R. in Experimentia, 34: 659-660 (1978). Such tests include the determination of the concentration of active material rquired to inhibit the growth of tumor cells in culture, (e.g., the concentration required to inhibit growth by 50 percent or the ED50) and of the dose of active material required to prolong the life of mice bearing transplanted tumors.

Test [1] deals with murine P388 lymphocytic leukemia (PS cell line). The experiment in a line: inhibition of growth of PS tumor cells in culture (ED50). The format is cell-based. Particulars: for IC50: Mus musculus.
Excerpt: as §1

Converted amounts (≈) assume the structure as drawn.

For `CCCC(=O)O[C@H]1C[C@H]2C[C@@H](O)CC(=O)O[C@@H]([C@@H](C)O)C[C@@H]3C/C(=C\C(=O)OC)[C@H](OC(C)=O)[C@@](O)(O3)C(C)(C)/C=C/[C@H]3C/C(=C\C(=O)OC)C[C@@H](C[C@](O)(O2)C1(C)C)O3` [Bryostatin 6], the “in vivo life extension” value in the test on P 388 (PS) mouse tumor (at 185 μg/kg) came to 82%. This compound also yielded an ED50 in test [1] (PS cell line) of 3 ng/mL (≈ 3.52 nM).
One may read the IC50 as the concentration needed to halve the response being measured. Higher therefore signals a need for much substance. As to `COC(=O)C=C1CC2/C=C/C(C)(C)C3(O)OC(C/C(=C\C(=O)OC)C3OC(C)=O)C[C@H]([C@@H](C)O)OC(=O)C[C@H](O)C[C@@H]3C[C@H](OC(C)=O)C(C)(C)[C@](O)(C[C@H](C1)O2)O3` (some centres unmarked) [Bryostatin 7], in the test on P 388 (PS) mouse tumor (at 92 μg/kg), the “in vivo life extension” value was found to be 77%. Besides, the IC50 in test [1] (P388, PS cell line) is 0.026 ng/mL (≈ 0.0315 nM).
On to `COC(=O)C=C1CC2/C=C/C(C)(C)C3(O)OC(C/C(=C\C(=O)OC)C3OC(C)=O)C[C@H]([C@@H](C)O)OC(=O)C[C@H](O)C[C@@H]3C[C@H](OC(=O)CC(C)C)C(C)(C)[C@](O)(C[C@H](C1)O2)O3` (some centres unmarked) [Bryostatin 5], for which the “in vivo life extension” value with P 388 (PS) mouse tumor (at 185 μg/kg) is recorded as 88%. Further, in test [1] (P388, PS cell line), the IC50 is 0.26 to 1.3 ng/mL (≈ 0.3 to 1.5 nM).
On to `CCCC(=O)OC1/C(=C/C(=O)OC)CC2C[C@H]([C@@H](C)O)OC(=O)C[C@H](O)C[C@@H]3C[C@H](OC(=O)CC(C)C)C(C)(C)[C@](O)(C[C@@H]4CC(=CC(=O)OC)CC(/C=C/C(C)(C)C1(O)O2)O4)O3` (some centres unmarked) [Bryostatin 4], for which the “increase in life extension” value in the test on P 388 (PS) mouse tumor (at 46 μg/kg) was 62%.
Turning to `CCCC(=O)OC1/C(=C/C(=O)OC)CC2C[C@H]([C@@H](C)O)OC(=O)C[C@H](O)C[C@@H]3C[C@H](OC(=O)CCC)C(C)(C)[C@](O)(C[C@@H]4CC(=CC(=O)OC)CC(/C=C/C(C)(C)C1(O)O2)O4)O3` (some centres unmarked) [Bryostatin 8], the midpoint of inhibition in test [1] (murine P388 lymphocytic leukemia assay (PS cell line), unit inferred), the IC50, lay at 1.3 ng/mL (≈ 1.48 nM).
